Data as given in US20090082443A1, “Use of fatty acid esters of glycerol combined with polylysine against gram-negative bacteria” (PURAC BIOCHEM B.V., priority 2007, published 2009).

How the values were obtained:
[1] = tested on: Salmonella typhimurium (ATCC 13311); assay: Bioscreen growth rate in brain heart infusion broth (synergy study); type: cell-based
Description: (§1) The following cultures were used in a study: Escherichia coli (ATCC 8739), Escherichia coli serotype O157:H7 (ATCC 700728), Salmonella typhimurium (ATCC 13311) and Salmonella entiritidis (ATCC 13076). All cultures were transferred daily in screw-capped tubes containing 10 ml brain heart infusion broth. Cultures were incubated at 30° C. without agitation. Brain heart infusion broth was prepared with increasing amounts of the mono/di glyceride and polylysine. The concentration range for the caprylic (C8) mono/di glyceride was as from 0 to 0.18% in 10 0.02% steps, for the capric (C10) mono/di glyceride was as from 0 to 0.09% in 10 0.01% steps, for the lauric (C12)mono/di glyceride was as from 0 to 0.009% in 10 0.001% steps. Mono/di glycerides were combined with polylysine. The concentration range for the polylysine was as from 0 to 0.0675% in 10 0.0075% steps, resulting in 100 different media. The pH of the media was adjusted to 6.1-6.2 with 1 N HCl or 1 N NaOH. Media were prepared in 10 ml quantities and sterilized by filtration. 300 μl of each medium was transferred to a panel of a sterile Bioscreen® honeycomb 100 well plate. Well plates were inoculated with 5 μl of a culture that was grown overnight in brain heart infusion broth using a sterile 5 μl repeating dispenser. Growth rates were determined with a Bioscreen® that kinetically measures the development of turbidity by vertical photometry. The plates were incubated for 16-24 hours at 37° C., the optical density of the cultures was measured every 30 minutes at 420-580 nm using a wide band filter. The Bioscreen® measures at set time intervals the optical density of the cultures. […] The purpose of further data processing is to ascertain whether two […] act independently of each other or whether they stimulate each other in their inhibitory action (synergy) or cancel out each other inhibitory effect (antagonism). […] This implies that only the maximum specific growth rate (μmax) value and not the affinity (Ks) is affected. Therefore the specific growth rate in the presence of inhibitor can be written as: μ=μi.s/(Ks+s), where μi is the maximal specific growth rate in the presence of a inhibitor P. The relationship between μi and μmax and the concentration of the inhibitor P was describes using the Logistic Dose Response equation, which reads: μi/μmax=1/(1+(p/P0.5)^b) (Jungbauer, A. (2001). The logistic dose response function: a robust fitting function for transition phenomena in life sciences. J. Clinical Ligand Assay 24: 270-274). In this equation p represents the concentration of inhibitor P and p0.5 the concentration of P where p=0.5 μmax; μmax is the maximum specific growth rate that is the specific growth rate in the absence of inhibitor P, b is a dimensionless quantity, which determines the relationship between μi and p. Combining the Monod and Logistic Dose Response equation it can be written as: μ=μmax (s/Ks+s)/(1+(p/p0.5)^b). In batch culture where s is usually many times higher than Ks this equation reduces to μ=μmax/(1+(p/p0.5)^b). When comparing different organisms grown under the same conditions, or the same organism grown under different conditions, it is more meaningful to use relative growth rate, rather than absolute growth rates as standards of comparison. Relative growth rate (O) is the ratio of growth rate (μ) to maximum growth rate (μmax) i.e. O=μ/μmax. It can be seen that while μ and μmax have the dimensions of (time)^−1, their ratio O is dimensionless, i.e. a pure number. Similarly we can define the relative inhibitor concentration ε as p/p0.5. The reduced Monod and Logistic Dose Response equation can now be written as: O=1/(1+ε^b).

[2] = tested on: Escherichia coli (ATCC 8739); assay: as above; type: cell-based
Description: as §1

[3] = tested on: Salmonella entiritidis (ATCC 13076); assay: as above; type: cell-based
Description: as §1

[4] = tested on: Escherichia coli serotype O157:H7 (ATCC 700728); assay: as above; type: cell-based
Description: as §1

[5] = tested on: Salmonella Typhimurium ATCC 13311; assay: Decontamination of inoculated chicken filets, surviving counts; type: cell-based
Description: Salmonella Typhimurium ATCC 13311 and Escherichia coli O157:H7 ATCC 700728 were grown in sterile screw capped tubes containing Brain heart infusion broth for 18-24 hours at 30° C.
Chicken filets (150-200 g) were trimmed, vacuum packaged and stored at 4-7° C. Filets were subsequently sterilized by gamma-irradiation (average radiation dose: 12 kiloGray).
1 ml of an overnight culture of Salmonella Typhimurium in brain heart infusion both was diluted 1000 times with sterile 0.8% (w/v) NaCl and 0.1% (w/v) peptone. 0.5 ml of this diluted culture was transferred to one side of the filet. The inoculum was distributed by gently rubbing the entire surface of the filet. This was repeated for the other side of the filet. Inoculation was carried out at 6° C. Inoculated filets were rested for 60-120 min at 6° C. to allow attachment of the cells.
Chicken filets were briefly dipped and completely submersed in 1 l of a solution containing the appropriate formulation and then transferred to 400 ml Bagfilter® lateral filter bags (Interscience, St Nom, France) containing 5 ml of the appropriate formulation. Bags were vacuum-sealed and incubated at 12° C. for up to 7 days until further analysis. Time zero samples were plated within 30 min after dipping.
Surviving Salmonella Typhimurium on chicken filets were counted as follows: a sealed bag was opened and to this was added 2 times the net weight sterile dilution fluid ([…] NaCl and 0.1% (w/v) bacteriological peptone). Duplicate filets were homogenized for 1 min. in a Bagmixer® 400 paddle labblender (Interscience, St Nom, France). 50 μl of the homogenates or dilutions thereof were plated on duplicate Salmonella chromogenic agar plates (CM1007) with cefsulodin, novobiocin supplement (SR0194) (Oxoid, Basingstoke, United Kingdom) using an Eddyjet type 1.23 spiral plater (IUL Instruments, Barcelona, Spain). Plates were incubated for 24-48 hours at 30° C. and then counted. Salmonella numbers were expressed as log10 colony forming units per ml homogenate.
The compositions of the formulations that were studied are shown in Table 2. ε-Polylysine and mono/di glycerides were dissolved in demineralised water and sterilized for 20 min at 120° C.

[6] = tested on: gram-positive and -negative bacteria; conditions: Shima et al. (November 1984); cited from earlier work
[7] = 0.120% (w/w) C8-glycerol ester alone
[8] = 0.090% (w/w) C10-glycerol ester alone
[9] = 0.0225% (w/w) polylysine alone, C8 part of Table 1
[10] = 0.0225% (w/w) polylysine alone, C10 part of Table 1

With “glyceryl mono/di octanoate [C8-glycerol ester]” the “Observed Relative Growth Rate” value [1, 7] was 0.4035, the “Observed Relative Growth Rate” value ([2]; 0.120% (w/w) C8-glycerol ester alone, broth pH 6.1-6.2, 37° C.) was 1.0845 and the “Observed Relative Growth Rate” value [3, 7] was 0.5220. For the same substance, the “Observed Relative Growth Rate” value [4, 7] was 0.9410, the “Salmonella Typhimurium on chicken filets” value ([5]; 0.2% (w/v) alone, 12° C., 0 days) was 3.82 log10 colony forming units (CFU)/ml and the “Salmonella Typhimurium on chicken filets” value ([5]; 0.2% (w/v) alone, 12° C., 1 day) was 3.81 log10 colony forming units (CFU)/ml. For the same substance, the “Salmonella Typhimurium on chicken filets” value ([5]; 0.2% (w/v) alone, 12° C., 2 days) was 4.03 log10 colony forming units (CFU)/ml, the “Salmonella Typhimurium on chicken filets” value ([5]; 0.2% (w/v) alone, 12° C., 5 days) was 6.41 log10 colony forming units (CFU)/ml and the “Salmonella Typhimurium on chicken filets” value ([5]; 0.2% (w/v) alone, 12° C., 6 days) was 7.48 log10 colony forming units (CFU)/ml. For the same substance, the “Salmonella Typhimurium on chicken filets” value ([5]; 0.2% (w/v) alone, 12° C., 7 days) was 7.39 log10 colony forming units (CFU)/ml.
For “glyceryl mono/di decanoate [C10-glycerol ester]”, the “Observed Relative Growth Rate” value [1, 8] was 0.4613, the “Observed Relative Growth Rate” value [3, 8] was 0.8960 and the “Observed Relative Growth Rate” value [4, 8] was 0.8685. The “Salmonella Typhimurium on chicken filets” value ([5]; 0.05% (w/v) alone, 12° C., 0 days) was 3.72 log10 colony forming units (CFU)/ml, the “Salmonella Typhimurium on chicken filets” value ([5]; 0.05% (w/v) alone, 12° C., 1 day) was 3.98 log10 colony forming units (CFU)/ml and the “Salmonella Typhimurium on chicken filets” value ([5]; 0.05% (w/v) alone, 12° C., 2 days) was 4.32 log10 colony forming units (CFU)/ml. For the same substance, the “Salmonella Typhimurium on chicken filets” value ([5]; 0.05% (w/v) alone, 12° C., 5 days) was 6.0 log10 colony forming units (CFU)/ml, the “Salmonella Typhimurium on chicken filets” value ([5]; 0.05% (w/v) alone, 12° C., 6 days) was 7.62 log10 colony forming units (CFU)/ml and the “Salmonella Typhimurium on chicken filets” value ([5]; 0.05% (w/v) alone, 12° C., 7 days) was 7.85 log10 colony forming units (CFU)/ml.
For ε-Polylysine, the “Observed Relative Growth Rate” value [1, 9] was 0.9653, the “Observed Relative Growth Rate” value [1, 10] was 0.9910 and the “Observed Relative Growth Rate” value [2, 9] was 0.7570. For the same substance, the “Observed Relative Growth Rate” value [3, 9] was 0.9945, the “Observed Relative Growth Rate” value [3, 10] was 0.9600 and the “Observed Relative Growth Rate” value [4, 9] was 0.8315. The “Observed Relative Growth Rate” value [4, 10] was 0.5850, the “concentrations effectively used against bacteria” value [6] was 1˜8 microgram per ml and the “Salmonella Typhimurium on chicken filets” value ([5]; 0.1% (w/v) alone, 12° C., 0 days) was 3.04 log10 colony forming units (CFU)/ml. The “Salmonella Typhimurium on chicken filets” value ([5]; 0.1% (w/v) alone, 12° C., 1 day) was 2.04 log10 colony forming units (CFU)/ml, the “Salmonella Typhimurium on chicken filets” value ([5]; 0.1% (w/v) alone, 12° C., 2 days) was 2.15 log10 colony forming units (CFU)/ml and the “Salmonella Typhimurium on chicken filets” value ([5]; 0.1% (w/v) alone, 12° C., 5 days) was 4.04 log10 colony forming units (CFU)/ml. For the same substance, the “Salmonella Typhimurium on chicken filets” value ([5]; 0.1% (w/v) alone, 12° C., 6 days) was 4.26 log10 colony forming units (CFU)/ml, the “Salmonella Typhimurium on chicken filets” value ([5]; 0.1% (w/v) alone, 12° C., 7 days) was 5.35 log10 colony forming units (CFU)/ml and the “killing or growth suppressing effect (in words)” value ([5]; individual components on chicken filets, 12° C.) was “reduced the cell numbers”. It also gave a reduction in numbers ([5]; single addition, after one day of incubation) of 2 log10.
